# In ChEMBL document CHEMBL3352400, “4-Functionalized 1,3-diarylpyrazoles bearing 6-aminosulfonylbenzothiazole moiety as potent inhibitors of carbonic anhydrase isoforms hCA I, II, IX and XII” (Bioorg Med Chem, 2014):
# pKi: −log10 of the molar value.
# Tests used:
# Carbonic anhydrase 9 = Carbonic anhydrase 9 (Homo sapiens, UniProt Q16790); assay: Inhibition of human carbonic anhydrase 9 by stopped flow CO2 hydrase assay method
# Carbonic anhydrase 1 = Carbonic anhydrase 1 (Homo sapiens, UniProt P00915); assay: Inhibition of human carbonic anhydrase 1 by stopped flow CO2 hydrase assay method
# Sequence of Carbonic anhydrase 1 (P00915 whole entry): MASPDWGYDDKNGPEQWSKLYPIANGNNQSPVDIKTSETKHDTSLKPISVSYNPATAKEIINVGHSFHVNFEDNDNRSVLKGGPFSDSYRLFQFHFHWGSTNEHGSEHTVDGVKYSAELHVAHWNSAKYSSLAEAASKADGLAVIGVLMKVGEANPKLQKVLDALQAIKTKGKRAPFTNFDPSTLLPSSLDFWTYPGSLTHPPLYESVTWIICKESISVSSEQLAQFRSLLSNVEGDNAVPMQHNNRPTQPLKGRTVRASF
# Carbonic anhydrase 12 = Carbonic anhydrase 12 (Homo sapiens, UniProt O43570); assay: Inhibition of human carbonic anhydrase 12 by stopped flow CO2 hydrase assay method
# Sequence of Carbonic anhydrase 12 (O43570 whole entry): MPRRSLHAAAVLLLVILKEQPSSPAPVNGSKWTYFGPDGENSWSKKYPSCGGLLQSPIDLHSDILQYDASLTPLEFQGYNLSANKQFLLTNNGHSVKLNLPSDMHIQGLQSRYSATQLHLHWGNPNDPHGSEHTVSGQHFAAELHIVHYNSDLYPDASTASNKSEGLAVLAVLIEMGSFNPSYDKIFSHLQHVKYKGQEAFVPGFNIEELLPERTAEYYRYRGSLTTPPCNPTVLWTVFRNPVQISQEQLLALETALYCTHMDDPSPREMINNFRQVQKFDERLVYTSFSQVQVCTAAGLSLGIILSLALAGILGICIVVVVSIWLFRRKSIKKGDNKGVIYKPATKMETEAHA
Compound,pKi (Carbonic anhydrase 9),pKi (Carbonic anhydrase 1),pKi (Carbonic anhydrase 12)
COc1ccc(-c2nn(-c3nc4ccc(S(N)(=O)=O)cc4s3)cc2C(=O)O)cc1,6.07,,
NS(=O)(=O)c1ccc2nc(-n3cc(/C=N/O)c(-c4ccc(Cl)cc4)n3)sc2c1,6.82,,
NS(=O)(=O)c1ccc2nc(-n3cc(C=O)c(-c4ccc([N+](=O)[O-])cc4)n3)sc2c1,5.68,,
NS(=O)(=O)c1ccc2nc(-n3cc(/C=N/O)c(-c4ccc(F)cc4)n3)sc2c1,6.65,,
NS(=O)(=O)c1ccc2nc(-n3cc(C(=O)O)c(-c4ccc(Cl)cc4)n3)sc2c1,8.55,,
Cc1ccc(-c2nn(-c3nc4ccc(S(N)(=O)=O)cc4s3)cc2C#N)cc1,6.73,< 4.30,
NS(=O)(=O)c1ccc2nc(-n3cc(C(=O)O)c(-c4ccc([N+](=O)[O-])cc4)n3)sc2c1,7.22,,
N#Cc1cn(-c2nc3ccc(S(N)(=O)=O)cc3s2)nc1-c1ccc([N+](=O)[O-])cc1,6.07,< 4.30,
N#Cc1cn(-c2nc3ccc(S(N)(=O)=O)cc3s2)nc1-c1ccc(Cl)cc1,6.65,< 4.30,
NS(=O)(=O)c1ccc2nc(-n3cc(C=O)c(-c4ccc(Cl)cc4)n3)sc2c1,5.77,,
Cc1ccc(-c2nn(-c3nc4ccc(S(N)(=O)=O)cc4s3)cc2/C=N/O)cc1,6.87,,
COc1ccc(-c2nn(-c3nc4ccc(S(N)(=O)=O)cc4s3)cc2/C=N/O)cc1,7.04,< 4.30,
NS(=O)(=O)c1ccc2nc(-n3cc(C(=O)O)c(-c4ccc(F)cc4)n3)sc2c1,7.20,,
NS(=O)(=O)c1ccc2nc(-n3cc(C=O)c(-c4ccccc4)n3)sc2c1,5.76,,
NS(=O)(=O)c1ccc2nc(-n3cc(C=O)c(-c4ccc(F)cc4)n3)sc2c1,,,< 5.00
Cc1ccc(-c2nn(-c3nc4ccc(S(N)(=O)=O)cc4s3)cc2C(=O)O)cc1,6.96,,
COc1ccc(-c2nn(-c3nc4ccc(S(N)(=O)=O)cc4s3)cc2C#N)cc1,6.95,< 4.30,
Cc1ccc(-c2nn(-c3nc4ccc(S(N)(=O)=O)cc4s3)cc2C=O)cc1,6.16,,
NS(=O)(=O)c1ccc2nc(-n3cc(/C=N/O)c(-c4ccccc4)n3)sc2c1,6.94,,
N#Cc1cn(-c2nc3ccc(S(N)(=O)=O)cc3s2)nc1-c1ccccc1,7.09,,
NS(=O)(=O)c1ccc2nc(-n3cc(C(=O)O)c(-c4ccccc4)n3)sc2c1,6.12,,
N#Cc1cn(-c2nc3ccc(S(N)(=O)=O)cc3s2)nc1-c1ccc(F)cc1,6.13,,
COc1ccc(-c2nn(-c3nc4ccc(S(N)(=O)=O)cc4s3)cc2C=O)cc1,6.64,,
